This passage reports solubility in water results from US5200505A, “R106 compounds” (Takara Shuzo Co., Ltd., priority 1990, dated 1993).

Each structure is given as a SMILES string. Numbered stars: 1 amine (or outer) side, 2 acyl side, 3 side chain; on linkers, the order of the positions; unused ones are H or OH. Square brackets hold non-standard residues; d marks the D form. Peptide text beside a SMILES is read from it. NMePhe(3-F) = CN[C@@H](Cc1cccc(F)c1)C(=O)O; NMePhe(2-F) = CN[C@@H](Cc1ccccc1F)C(=O)O; NMeVal(β-OH) = CN[C@H](C(=O)O)C(C)(C)O; Phe(3-F) = N[C@@H](Cc1cccc(F)c1)C(=O)O; Phe(2-F) = N[C@@H](Cc1ccccc1F)C(=O)O; NMeY = CN[C@@H](Cc1ccc(O)cc1)C(=O)O; NMeF = CN[C@@H](Cc1ccccc1)C(=O)O; aIle = CC[C@@H](C)[C@H](N)C(=O)O; X1 = CCC(C)C(O[*:1])C(=O)[*:2]; NMeV = CN[C@H](C(=O)O)C(C)C; NMeS = CN[C@@H](CO)C(=O)O; Thz = O=C(O)[C@@H]1CSCN1

A short description of this data set: Solubility in water. Type of data set: physicochemical. To be noted: compared with antibiotics R106.
In the case of `CCC(C)C1OC(=O)[C@H](C(C)(C)O)N(C)C(=O)[C@H](CC(C)C)NC(=O)[C@H](C(C)C)N(C)C(=O)[C@H]([C@H](C)CC)NC(=O)[C@@H]2CSCN2C(=O)[C@H](Cc2ccccc2)N(C)C(=O)[C@H](Cc2ccccc2)NC(=O)[C@H](C(C)C)N(C)C1=O` (stereo partly drawn) [Compound 5] (cyclo(F[NMeF][Thz][aIle][NMeV]L[NMeVal(β-OH)][X1][NMeV])), the solubility in water result is given as “higher”.
With `CCC(C)C1OC(=O)[C@H](C(C)(C)O)N(C)C(=O)[C@H](CC(C)C)NC(=O)[C@H](C(C)C)N(C)C(=O)[C@H]([C@H](C)CC)NC(=O)[C@@H]2CCCN2C(=O)[C@H](Cc2ccc(O)cc2)N(C)C(=O)[C@H](Cc2ccc(O)cc2)NC(=O)[C@H](C(C)C)N(C)C1=O` (stereo partly drawn) [Compound 3] (cyclo(L[NMeVal(β-OH)][X1][NMeV]Y[NMeY]P[aIle][NMeV])), the solubility in water entry is “higher”.
With `CCC(C)C1OC(=O)[C@H](C(C)(C)O)N(C)C(=O)[C@H](CC(C)C)NC(=O)[C@H](C(C)C)N(C)C(=O)[C@H]([C@H](C)CC)NC(=O)[C@@H]2CCCN2C(=O)[C@H](CO)N(C)C(=O)[C@H](Cc2ccccc2)NC(=O)[C@H](C(C)C)N(C)C1=O` (stereo partly drawn) [Compound 9] (cyclo(F[NMeS]P[aIle][NMeV]L[NMeVal(β-OH)][X1][NMeV])), the solubility in water result is “higher”.
The value for `CCC(C)C1OC(=O)[C@H](C(C)(C)O)N(C)C(=O)[C@H](CC(C)C)NC(=O)[C@H](C(C)C)N(C)C(=O)[C@H]([C@H](C)CC)NC(=O)[C@@H]2CCCN2C(=O)[C@H](Cc2ccccc2F)N(C)C(=O)[C@H](Cc2ccccc2F)NC(=O)[C@H](C(C)C)N(C)C1=O` (stereo partly drawn) [Compound 1] (cyclo(L[NMeVal(β-OH)][X1][NMeV][Phe(2-F)][NMePhe(2-F)]P[aIle][NMeV])) was “higher”.
The value for `CCC(C)C1OC(=O)[C@H](C(C)(C)O)N(C)C(=O)[C@H](CC(C)C)NC(=O)[C@H](C(C)C)N(C)C(=O)[C@H]([C@H](C)CC)NC(=O)[C@@H]2CCCN2C(=O)[C@H](Cc2cccc(F)c2)N(C)C(=O)[C@H](Cc2cccc(F)c2)NC(=O)[C@H](C(C)C)N(C)C1=O` (stereo partly drawn) [Compound 2] (cyclo(L[NMeVal(β-OH)][X1][NMeV][Phe(3-F)][NMePhe(3-F)]P[aIle][NMeV])) was “higher”.
